Experimental data from PMC3397457, “Preclinical Evaluation of Anticancer Efficacy and Pharmacological Properties of FBA-TPQ, a Novel Synthetic Makaluvamine Analog” (Marine Drugs, 2012).
Read-outs that look alike come from different tables or passages of the source.

Assays:
Panc-1 cells = experiment: MTT cell survival assay, Panc-1; format: cell-based; conditions: Homo sapiens, Panc-1, 72 h, read-out: Cytotoxicity IC50
Description: We evaluated the effects of FBA-TPQ on the survival of several human pancreatic cancer cell lines, including HPAC (p53^+/+), Panc-1(p53^+/−), and Mia PaCa-2(p53^+/−), as well as normal IRM90 fetal fibroblast cells (Figure 2a). Cells were exposed to various concentrations of the test compound (0–10 µM) for 72 h, and cell survival rates were determined by the MTT assay, using a procedure reported previously. FBA-TPQ exerted potent effects against the test cancer cell lines, leading to significant decreases in cell viability.
Human pancreatic cancer cells were obtained from the American Type Culture Collection (Rockville, MD). All cell culture media contained 10% FBS and 1% penicillin/streptomycin. […]
The effect of the test compound on human pancreatic cancer cell viability, expressed as the percentage of cell survival, was determined using the MTT (3-(4,5-dimethylthiazol-2-yl)-2,5-diphenyl tetrazolium bromide) assay. […] The absorbance at 570 nm was recorded using an OPTImax microplate reader (Molecular Devices; Sunnyvale, CA, USA). The cell survival percentages were calculated by dividing the mean OD of compound-containing wells by that of DMSO-containing control wells. […]

[1] = Pharmacokinetics and tissue distribution in BALB/c mice; format: in vivo; conditions: for Vd: read-out: Vss
Description: To assess the disposition of FBA-TPQ in vivo, pharmacokinetic studies in BALB/c were conducted. The results of the mean plasma concentration-time curves of FBA-TPQ, and tissue concentration-time curves of FBA-TPQ, after intravenous or intraperitoneal injection in BALB/c mice are presented in Figure 5. Two-compartmental model (WinNonlin 6.0 Model 7, Pharsight Corporation: Mountain View, CA, USA, 2009) was used to analyze the data obtained following intravenous (iv) and intraperitoneal (ip) administration of the compound.
Female BALB/c (18–20 g) mice were purchased from Harlan Laboratories (Indianapolis, IN). All animals were fed with commercial diet and water ad libitum and were on an alternating 12 h light/dark cycle. The mice were randomly divided into groups of three, and were dosed either intravenously (5 mg/kg) or intraperitoneally (10 mg/kg) with FBA-TPQ in PEG 400: ethanol: saline (57.1%:14.3%:28.6%). Before dosing, and at 5, 15, 30, and 60 min, and 2, 4, 8, and 24 h after dosing, groups of animals (three/time point) were anesthetized, and blood was collected from the retro-orbital sinus into heparinized tubes. Plasma was obtained by centrifuging the blood samples at 14,000 rpm for 15 min. FBA-TPQ was then extracted from plasma and stored at −80 °C until analysis. The brain, heart, kidneys, liver, lungs, and spleen were also collected at the same time points during necropsy, blotted on Whatman No. 1 filter paper, trimmed of extraneous fat and connective tissue, weighed, and homogenized in phosphate-buffered saline. The resulting homogenates were stored at −80 °C until further processing and analysis.
The average FBA-TPQ concentrations in plasma and tissues at each of the time points following intravenous and intraperitoneal administrations were used for pharmacokinetic analyses using a one- or two-compartmental model, respectively. The following pharmacokinetic parameters were estimated using Phoenix WinNonlin 6.0 (Mountain View, CA, USA): area under the concentration-time curve (AUC, h·μg/mL), half-life (T½, h), maximum concentration (Cmax, μg/mL), time of the maximum concentration (Tmax, h), and clearance (CL, mL/h/kg), as applicable. Bioavailability (X) was calculated as X = [AUCip × doseiv]/[AUCiv × doseip].

[2] = female, mouse, brain, ip, 10 mg/kg
[3] = female, mouse, brain, iv, 5 mg/kg
[4] = female, mouse, heart, ip, 10 mg/kg
[5] = female, mouse, heart, iv, 5 mg/kg
[6] = female, mouse, kidneys, ip, 10 mg/kg
[7] = female, mouse, kidneys, iv, 5 mg/kg
[8] = female, mouse, liver, ip, 10 mg/kg
[9] = female, mouse, liver, iv, 5 mg/kg
[10] = female, mouse, lungs, ip, 10 mg/kg
[11] = female, mouse, lungs, iv, 5 mg/kg
[12] = female, mouse, plasma, ip, 10 mg/kg
[13] = female, mouse, plasma, iv, 5 mg/kg
[14] = female, mouse, spleen, ip, 10 mg/kg
[15] = female, mouse, spleen, iv, 5 mg/kg

Compound: O=C1C(NCc2ccc(F)cc2)=CC2=NCCc3c[nH]c1c32 [FBA-TPQ, 7-(4-fluorobenzylamino)-1,3,4,8-tetrahydropyrrolo[4,3,2-de]quinolin-8(1H)-one]
- IC50 (Panc-1 cells): 110 ± 10 nM
- detectability in mouse plasma ([1]; 4 h after iv injection, 5 mg/kg): no longer detectable
- Vss ([1]; brain, ip, 10 mg/kg): 4.10 mL/g
- AUC [1, 2]: 62.3 ng·h/mL
- half-life [1, 2]: 110 min
- AUC [1, 3]: 138 ng·h/mL
- half-life [1, 3]: 15.1 min
- clearance ([1]; female, mouse, brain, iv, 5 mg/kg, read-out: Cl (converted)): 575 mL/min/kg
- Vd [1, 3]: 18.7 L/kg
- AUC [1, 4]: 2360 ng·h/mL
- half-life [1, 4]: 32.5 min
- AUC [1, 5]: 2000 ng·h/mL
- half-life [1, 5]: 30.1 min
- clearance ([1]; female, mouse, heart, iv, 5 mg/kg, read-out: Cl (converted)): 41.2 mL/min/kg
- Vd [1, 5]: 1.77 L/kg
- AUC [1, 6]: 14700 ng·h/mL
- half-life [1, 6]: 94.8 min
- AUC [1, 7]: 11500 ng·h/mL
- half-life [1, 7]: 15.1 min
- clearance ([1]; female, mouse, kidneys, iv, 5 mg/kg, read-out: Cl (converted)): 7.27 mL/min/kg
- Vd [1, 7]: 0.491 L/kg
- AUC [1, 8]: 1850 ng·h/mL
- half-life [1, 8]: 7.62 min
- AUC [1, 9]: 949 ng·h/mL
- half-life [1, 9]: 30.6 min
- clearance ([1]; female, mouse, liver, iv, 5 mg/kg, read-out: Cl (converted)): 78.3 mL/min/kg
- Vd [1, 9]: 3.34 L/kg
- AUC [1, 10]: 5710 ng·h/mL
- half-life [1, 10]: 21.8 min
- AUC [1, 11]: 4020 ng·h/mL
- half-life [1, 11]: 30.1 min
- clearance ([1]; female, mouse, lungs, iv, 5 mg/kg, read-out: Cl (converted)): 20.6 mL/min/kg
- Vd [1, 11]: 7.79 L/kg
- bioavailability ([1]; female, mouse, plasma, intraperitoneal, based on AUC values, ip 10 mg/kg vs iv 5 mg/kg): 28.9%
- AUC [1, 12]: 338 ng·h/mL
- half-life [1, 12]: 13.1 min
- concentration at 5 min ([1]; female, mouse, plasma, ip, 10 mg/kg, at 5 min): 542 ng/mL
- concentration at 2 h ([1]; female, mouse, plasma, ip, 10 mg/kg, at 2 h): 40.2 ng/mL
- AUC [1, 13]: 583 ng·h/mL
- half-life [1, 13]: 14.9 min
- Vd [1, 13]: 18.7 L/kg
- clearance ([1]; female, mouse, plasma, single bolus iv dose 5 mg/kg, read-out: clearance rate (converted)): 141 mL/min/kg
- AUC [1, 14]: 6500 ng·h/mL
- half-life [1, 14]: 104 min
- AUC [1, 15]: 2330 ng·h/mL
- half-life [1, 15]: 4.86 min
- clearance ([1]; female, mouse, spleen, iv, 5 mg/kg, read-out: Cl (converted)): 33 mL/min/kg
- Vd [1, 15]: 1.27 L/kg
- Cl ([1]; heart, ip, 10 mg/kg): 64.2 mL/min/kg
- Vss ([1]; heart, ip, 10 mg/kg): 2.19 mL/g
- order of highest overall tissue concentrations ([1]; ip, 10 mg/kg): kidneys > spleen > lungs > liver > heart > brain
- concentration in plasma ([1]; ip, 10 mg/kg, 4 h after administration): undetectable levels
- order of highest overall concentrations in the tissues examined ([1]; iv, 5 mg/kg): kidneys > lungs > heart > spleen > plasma ≈ liver > brain
- Cl ([1]; kidneys, ip, 10 mg/kg): 13.7 mL/min/kg
- Vss ([1]; kidneys, ip, 10 mg/kg): 0.801 mL/g
- Cl ([1]; liver, ip, 10 mg/kg): 64.2 mL/min/kg
- Cl ([1]; lungs, ip, 10 mg/kg): 31.3 mL/min/kg
- Vss ([1]; lungs, ip, 10 mg/kg): 10.32 mL/g
- Cl ([1]; plasma, ip, 10 mg/kg): 330 mL/min/kg
- Vss ([1]; plasma, ip, 10 mg/kg): 21.8 mL/g
- Cl ([1]; plasma, iv, 5 mg/kg): 141 mL/min/kg
- Cl ([1]; spleen, ip, 10 mg/kg): 15.5 mL/min/kg
- Vss ([1]; spleen, ip, 10 mg/kg): 0.78 mL/g
